Measured values from article PMC11003479, “Inhibition of pathogenic bacterial carbonic anhydrases by monothiocarbamates” (Journal of Enzyme Inhibition and Medicinal Chemistry, 2023).

Columns and labels:
α-EfCA [1] = molecular target: T1, α-EfCA (Enterococcus faecium, UniProt Q3XYE8); assay: biochemical; design: stopped-flow CO2 hydration assay of recombinant carbonic anhydrases, pH 7.4 (alpha) or 8.3 (gamma), KI
T1 construct: gene HMPREF0351_11360
T1 sequence (Q3XYE8 1-234): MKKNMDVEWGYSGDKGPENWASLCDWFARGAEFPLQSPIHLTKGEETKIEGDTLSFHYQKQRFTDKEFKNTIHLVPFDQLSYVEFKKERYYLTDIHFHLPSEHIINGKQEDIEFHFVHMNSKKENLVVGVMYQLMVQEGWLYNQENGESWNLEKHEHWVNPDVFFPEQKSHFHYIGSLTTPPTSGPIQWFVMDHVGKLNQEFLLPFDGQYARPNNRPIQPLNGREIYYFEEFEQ
Protocol: (§1) The experiments were performed at the pH of 7.4 for the α-class enzymes, and the pH of 8.3 for the γ-CA, as reported earlier[15]^,[16]. The bacterial enzymes were recombinant proteins obtained as reported earlier by our group[15]^,[16].

α-NgCA [2] = molecular target: T2, α-NgCA (Neisseria gonorrhoeae, UniProt Q50940); assay: biochemical; design: stopped-flow CO2 hydration assay of recombinant carbonic anhydrases, pH 7.4 (alpha) or 8.3 (gamma), KI
T2 construct: gene cah
T2 sequence (Q50940 27-252): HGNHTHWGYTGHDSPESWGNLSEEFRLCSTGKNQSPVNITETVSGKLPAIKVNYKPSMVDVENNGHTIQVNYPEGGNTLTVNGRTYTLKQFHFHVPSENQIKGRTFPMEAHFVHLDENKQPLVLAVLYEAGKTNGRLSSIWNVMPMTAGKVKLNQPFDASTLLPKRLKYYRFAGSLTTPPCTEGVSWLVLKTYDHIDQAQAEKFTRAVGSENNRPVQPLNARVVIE
Protocol: as §1

γ-EfCA = assay: stopped-flow CO2 hydrase assay; assay type: biochemical, Enterococcus faecium; conditions: CO2 hydration, pH 8.3
α-EfCA [3] = molecular target: T1, α-EfCA; assay: stopped-flow CO2 hydrase assay; assay type: biochemical
α-NgCA [4] = molecular target: T2, α-NgCA; assay: stopped-flow CO2 hydrase assay; assay type: biochemical

Compound	Ki (α-EfCA [1]) [nM]	Ki (α-NgCA [2]) [nM]	Ki (γ-EfCA) [µM]	Ki (α-EfCA [3]) [µM]	Ki (α-NgCA [4]) [µM]
CN1CCN(C(=O)S)CC1 [compound 6]	959	729			
O=C(S)N1CCN(c2ccc(F)cc2)CC1 [compound 14, MTC 14]			0.149	0.195	0.417
O=C(S)N1CCN(c2ccc(C(F)(F)F)cc2)CC1 [compound 13, MTC 13]			0.334	0.477	0.394
CCOC(=O)CN(C)C(=O)S [compound 7, MTC 7]			0.279		
CN(Cc1ccccc1)C(=O)S [compound 8]	686	843			
CCCCN(CC)C(=O)S [compound 10]	806	766			
O=C(CN1CCN(C(=O)S)CC1)NC1CCCCC1 [compound 5, MTC 5]			0.417	0.29	0.395
CCOC(=O)CN(C)C(=O)S [compound 7]	788	919			
COc1ccc(CCNC(=O)S)cc1OC [compound 12, MTC 12]			0.358	0.357	0.512
O=C(S)N1CCN(c2cccc(Cl)c2)CC1 [compound 15, MTC 15]			0.214	0.3	0.367
CC(C)CN(CC(C)C)C(=O)S [compound 2]	665	890			
CCCN(CCC)C(=O)S [compound 4]	550	799			
O=C(S)N1CCOCC1 [compound 1]	740	761			
O=C(S)NCCc1ccccc1 [compound 9, MTC 9]				0.428	
O=C(S)N1CCN(C(=O)S)CC1 [compound 11]	915	630			
CCCCN(CCCC)C(=O)S [compound 3]	517	825			
O=C(S)NCCc1ccccc1 [compound 9]		648			
